Source: patent US20150296790A1, “SILICON-CONTAINING COMPOUND AQUEOUS SOLUTION AND ANTIBACTERIAL/ANTIVIRAL AGENT INCLUDING SAID SOLUTION” (JEX CO., LTD., priority 2012, published 2015)

Test: Deodorant activity test
Conditions: γ-CD 1 w/w %, Compound E 0.1 w/w %
Experimental: The predetermined samples shown in Tables 1 to 5 were tested for deodorant activity against ammonia, acetic acid, isovaleric acid, and nonenal. Now, the test, including the test conditions, will be specifically described. Test Items: The deodorant test and the test to gain SEK mark approval for textiles according to the certification standards of the Japan Textile Evaluation Technology Council (4 ml of sample liquid was applied to a cotton fabric and dried for a period of from 30 minutes to 1 hour. Then, the concentration of the gas volatilized from the cotton fabric was measured by a detection tube and gas chromatography) Odor tested: Ammonia, acetic acid, isovaleric acid, and nonenal Samples used: Sample 1): Compound E 0.1%+γ-CD 1%+purified water 98.9% • Sample 2): Compound E 0.1%+γ-CD 5%+purified water 94.9% Initial gas concentration: Ammonia: 100 ppm (100 cm^2) • Acetic acid: 50 ppm (100 cm^2) • Isovaleric acid: about 38 ppm (48 cm^2) • Nonenal: about 14 ppm (48 cm^2)

## CCCCCCCCCCCCCCCCCC[N+](C)(C)CCC[Si](OCC)(OCC)OCC.[Cl-] [Compound E, Octadecyl dimethyl(3-triethoxysilylpropyl)ammonium chloride]
  Deodorant Effect: Deodorant Activity Test (by Detection Tube and Gas Chromatography): Confirmed
